Results taken from patent US10058586B2, “Use of human small leucine zipper protein in adipocyte differentiation procedure” (Korea University Research and Business Foundation, priority 2013, dated 2018).
d = 2'-deoxy (DNA)

Biological target: T1, PPARγ2 (Homo sapiens, UniProt P37231)
T1 sequence (P37231 1-505): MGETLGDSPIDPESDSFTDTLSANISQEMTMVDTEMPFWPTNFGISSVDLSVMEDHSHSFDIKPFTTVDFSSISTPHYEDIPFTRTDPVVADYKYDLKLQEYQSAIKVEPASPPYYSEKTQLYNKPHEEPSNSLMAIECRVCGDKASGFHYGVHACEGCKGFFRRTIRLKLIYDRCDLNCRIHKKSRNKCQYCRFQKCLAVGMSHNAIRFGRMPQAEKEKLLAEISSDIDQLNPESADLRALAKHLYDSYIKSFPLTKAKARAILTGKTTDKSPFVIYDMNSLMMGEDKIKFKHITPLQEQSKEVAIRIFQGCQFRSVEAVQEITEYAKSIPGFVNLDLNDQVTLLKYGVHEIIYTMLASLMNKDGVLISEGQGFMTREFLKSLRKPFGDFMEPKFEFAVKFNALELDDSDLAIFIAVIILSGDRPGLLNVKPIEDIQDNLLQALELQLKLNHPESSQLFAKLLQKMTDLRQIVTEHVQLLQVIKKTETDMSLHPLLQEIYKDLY
Test: Luciferase reporter gene analysis (FABP4-Luc) of PPARγ2 transcriptional activity in 293T cells
Type: cell-based
Set-up: expressed in transfected cells; host or cells: 293T cells
Settings: for sLZIP-mediated PPARγ2 transcriptional activity (luciferase): 293T cells expressing sLZIP, 100 nM si-RNAs, with or without 10 nM RZD
Procedure: C3H10T1/2 and 293T cells were plated in a 12-well culture dish at a density of 2×10^5 cells/well and incubated for 24 hours. Then, according to instructions of the manufacturer, the cells were transfected with a 0.2 μg of reporter genes and 0.1 to 0.5 μg of a laboratory plasmid using Lipofectamine 2000 or Genefectine. After 24 hours, the cells were cultured in a serum-free DMEM with or without 10 nM of rosiglitazone. siRNAs were prepared using sLZIP and HDAC target sequences (Table 1). For an RNA interference experiment, according to instructions of the manufacturer, the cells were transfected with scrambled control group RNA and appropriate siRNAs using Lipofectamine 2000. Human MSC and C3H10T/1/2 cells were infected with an adenovirus vector containing cDNA of human sLZIP or an empty vector. The infected medium was exchanged with a fresh medium after two hours.
Appropriately transfected cells were washed with cold PBS twice, and a reporter lysis buffer (Promega) was used and lysed in a culture dish. Luciferase analysis was performed using a luciferase analysis system (Promega Corporation, Madison, Wis.). A luciferase activity was recorded in Luminometer 20/20^n (Turner BioSystems, Sunnyvale, Calif.) according to instructions of the manufacturer. The luciferase activity was normalized to a β-galactosidase activity. For β-galactosidase analysis, CMV-β-galactosidase was transfected with luciferase reporter genes. All pieces of data were represented as mean±standard deviation of the results from at least three independent experiments.
In order to examine an effect of sLZIP on the transcriptional activity of PPARγ2, 293T cells were temporarily transfected with PPARγ2 (0.5 μg), β-galactosidase (0.1 μg), FABP4-Luc reporter genes (0.2 μg) and sLZIP at different contents (0.1 to 0.5 μg). After the transfection, the cells were stimulated with or without 10 nM of rosiglitazone (RZD) (FIG. 1A), pioglitazone (PZD) (FIG. 1B), and troglitazone (TZD) (FIG. 1C). A relative luciferase activity was analyzed with or without cell ligand treatment 24 hours after transfection. Also, the 293T cells were transiently transfected with si-sLZIP at different contents (50 and 100 nM), and the cells were treated or not treated with RZD (FIG. 1D). FABP4-Luc stable C3H10T1/2 cells were infected with a sLZIP-expressing adenovirus, and then differentiated into adipocytes for 4 days (FIG. 1E). A luciferase activity was normalized to a β-galactosidase activity and represented as a relative activity (fold change). All experiments were repeated three times, and bars in the graph represent mean±standard deviation. *, P<0.05; **, P<0.01
For this purpose, 293T cells were transiently transfected with PPARγ2 (0.5 μg), (3-galactosidase (0.1 μg), FABP4-Luc reporter genes (0.2 μg) and sLZIP (0.1 μg). After the transfection, the cells were stimulated with or without 10 nM of RZD and 10 nM of TSA (FIG. 4A). A promoter activity was measured according to luciferase analysis. In the 293T cells, FABP4-Luc reporter genes, sLZIP, PPAR, β-galactosidase, and 100 nM of si-RNAs and HDAC1, 2, 3 and 8 for a control group were expressed. After the transfection, the cells were stimulated with or without 10 nM of RZD, and a promoter activity was measured (FIG. 4B). 293T cells were temporarily transfected with FABP4-Luc reporter genes, PPARγ2, β-galactosidase, HDAC3 (0.5 μg) and sLZIP (0.1 μg). After the transfection, the cells were stimulated with or without 10 nM of RZD, and luciferase analysis was performed (FIG. 4C). A luciferase activity was normalized to a β-galactosidase activity and represented as a relative intensity (fold change). All experiments were repeated three times, and bars in the graph represent mean±standard deviation. GFP-sLZIP expression constructs were expressed in C3H10T1/2 cells, rabbit anti-HDAC3 antibodies and Texas Red-labeled anti-rabbit antibodies were used and analysis was performed under a fluorescence microscope. The nucleus was stained with DAPI (FIG. 4D). […]

Substance | sLZIP-mediated PPARγ2 transcriptional activity (luciferase) | transcriptional activity of PPARγ2 (relative luciferase activity) (293T cells, si-sLZIP 50 and 100 nM, treated or not treated with RZD)
siRNA for HDAC1: siRNA with HDAC1 target sequence, SEQ ID NO: 7 and 8 (chain 1 CGACUGUUUGAGAACCUUA; chain 2 UAAGGUUCUCAAACAGUCGCU; RNA, 3' dTdT, backbone not given here) [reference compound] | not involved in sLZIP-mediated PPARγ2 regulation | 
siRNA for HDAC3: siRNA with HDAC3 target sequence, SEQ ID NO: 11 and 12, used to knock down HDAC3 (chain 1 GCCGGUUAUCAACCAGGUA; chain 2 UACCUGGUUGAUAACCGGC; RNA, 3' dTdT, backbone not given here) [reference compound] | significantly increased | 
siRNA for HDAC8: siRNA with HDAC8 target sequence, SEQ ID NO: 13 and 14 (chain 1 CAUUCAGGAUGGCAUACAA; chain 2 UUGUAUGCCAUCCUGAAUGGG; RNA, 3' dTdT, backbone not given here) [reference compound] | not involved in sLZIP-mediated PPARγ2 regulation | 
siRNA for HDAC2: siRNA with HDAC2 target sequence, SEQ ID NO: 9 and 10 (chain 1 GGUCAAUAAGACCAGAUAA; chain 2 UUAUCUGGUCUUAUUGACCG; RNA, 3' dTdT, backbone not given here) [reference compound] | not involved in sLZIP-mediated PPARγ2 regulation | 
si-sLZIP: siRNA for sLZIP, SEQ ID NO: 5 and 6 (+dTdT) (chain 1 GGACCCAGAUGACUCCACAGCAUAU; chain 2 AUAUGCUGUGGAGUCAUCUGGGUCC; RNA, 3' dTdT, backbone not given here) [reference compound] |  | increased the transcriptional activity of PPARγ2
